Test results taken from ChEMBL document CHEMBL4265965, “Dichloroacetophenones targeting at pyruvate dehydrogenase kinase 1 with improved selectivity and antiproliferative activity: Synthesis and structure-activity relationships” (Bioorg Med Chem Lett, 2018).
The source made the active and inactive calls. No cut-off for these calls is given here.

How the values were obtained:
[1] = tested on: NCI-H1650; assay: Antiproliferative activity against human NCI-H1650 cells assessed as inhibition of cell proliferation at 12 uM after 72 hrs by MTT assay relative to control; assay type: functional; details: for inhibition at 12 µM: NCI-H1650, 72 h
[2] = tested on: NCI-H1975; assay: Antiproliferative activity against human NCI-H1975 cells assessed as inhibition of cell proliferation at 2 uM after 72 hrs by MTT assay relative to control; assay type: functional; details: for inhibition at 2 µM: NCI-H1975, 72 h
[3] = target: [Pyruvate dehydrogenase (acetyl-transferring)] kinase isozyme 1, mitochondrial (Homo sapiens, UniProt Q15118); assay: Inhibition of recombinant human N-terminal His6/Sumo-tagged PDK1 (29 to 436 residues) expressed in Escherichia coli BL21 at 1 uM by kinase-glo luminescence assay relative to control
[4] = tested on: NCI-H1975; assay: Antiproliferative activity against human NCI-H1975 cells assessed as inhibition of cell proliferation at 6 uM after 72 hrs by MTT assay relative to control; assay type: functional; details: for inhibition at 6 µM: NCI-H1975, 72 h
[5] = tested on: NCI-H1650; assay: Antiproliferative activity against human NCI-H1650 cells assessed as inhibition of cell proliferation at 6 uM after 72 hrs by MTT assay relative to control; assay type: functional; details: for inhibition at 6 µM: NCI-H1650, 72 h
[6] = tested on: A549; assay: Antiproliferative activity against human A549 cells assessed as inhibition of cell proliferation at 12 uM after 72 hrs by MTT assay relative to control; assay type: functional; details: A549, 72 h
[7] = tested on: NCI-H1975; assay: Antiproliferative activity against human NCI-H1975 cells assessed as inhibition of cell proliferation at 12 uM after 72 hrs by MTT assay relative to control; assay type: functional; details: NCI-H1975, 72 h
[8] = tested on: NCI-H1650; assay: Antiproliferative activity against human NCI-H1650 cells assessed as inhibition of cell proliferation at 2 uM after 72 hrs by MTT assay relative to control; assay type: functional; details: for inhibition at 2 µM: NCI-H1650, 72 h
[9] = tested on: A549; assay: Antiproliferative activity against human A549 cells assessed as inhibition of cell proliferation at 6 uM after 72 hrs by MTT assay relative to control; assay type: functional; details: for inhibition at 6 µM: A549, 72 h
[10] = tested on: A549; assay: Antiproliferative activity against human A549 cells assessed as inhibition of cell proliferation at 2 uM after 72 hrs by MTT assay relative to control; assay type: functional; details: for inhibition at 2 µM: A549, 72 h

Structure (SMILES)	inhibition at 12 µM [1] [%]	inhibition at 2 µM [2] [%]	inhibition [3]	inhibition at 6 µM [4] [%]	inhibition at 6 µM [5] [%]	inhibition at 12 µM [6] [%]	inhibition at 12 µM [7] [%]	inhibition at 2 µM [8] [%]	inhibition at 6 µM [9] [%]	inhibition at 2 µM [10] [%]	inhibition [10]	inhibition [2]	inhibition [1]	inhibition [5]	inhibition [8]	inhibition [4]	inhibition [9]
CCc1ccc(C(=O)C(Cl)Cl)cc1	99.3	55.4	44%	97.6	79.1	92.8	96.5	30.7	81.4	31.5							
O=C(c1ccccc1Cl)C(Cl)Cl	42.9	12.6	inactive	39	19.7	27.9	71	10.3	4.6		inactive						
Cc1ccc(C(=O)C(Cl)Cl)cc1	78.4	28.6	19.7%	83.1	54.3	80	95.7	31.2	33.2		inactive						
O=C(c1ccc(F)cc1F)C(Cl)Cl	95.3	74.3		97.5	65.5	58.5	98.7	30.8	50.1	4.8							
N#Cc1ccc(C(=O)C(Cl)Cl)cc1	96.5	54.6		99.4	65.8	61.4	99.7	11.8	15.9	8.5							
CC(C)c1ccc(C(=O)CCl)cc1[N+](=O)[O-]	95.7	9		50.4	59.7	75.6	99	18.4	28.7		inactive						
CCOc1ccc(C(=O)C(Cl)Cl)cc1	90.2	22.6	19.7 to 67.9%	89	50.4	80.9	98.6	22.3	31.6	18.9							
O=C(c1ccccc1C(F)(F)F)C(Cl)Cl	16.7		inactive	2.1	12.7	8.3	10.2	8.1	9	3		inactive					
O=C(c1cccc(C(F)(F)F)c1)C(Cl)Cl	97.5	45.8		96.6	65.9	77.9	97.8	24	28.4	11							
O=C(c1ccccc1F)C(Cl)Cl		4.4	inactive	12.8		13.6	48.6		10.1		inactive		inactive	inactive	inactive		
O=C(c1cccc(Cl)c1)C(Cl)Cl	99.1	37		95.9	76.3	82.8	98.4	24.9	53.1	14.2							
CCc1cccc(C(=O)C(Cl)Cl)c1	98.7	28		85.9	64.1	63.2	96.9	23.7	25.7	22.6							
O=C(c1cccc(I)c1)C(Cl)Cl	98.7	64		97.5	82	89.8	99.1	46.1	67	20.4							
CC(C)c1ccc(C(=O)C(Cl)(Cl)Cl)cc1[N+](=O)[O-]	22.6					12.5	31.2				inactive	inactive		inactive	inactive	inactive	inactive
O=C(c1ccc(I)cc1)C(Cl)Cl	99.6	33.8		91.4	65.6	74.4	96.8	29.3	52.3	9.3							
O=C(c1ccc(F)cc1)C(Cl)Cl	95.5	15.4		92.1	62.9	48.1	98.3	26.5	15.5	4.7							
O=C(c1ccc(Br)cc1)C(Cl)Cl	73.4	13.3		67.7	37.8	48.8	96.1	23.5	16.2		inactive						
O=C(c1ccc(Br)c([N+](=O)[O-])c1)C(Cl)Cl	59.1	9.1		74.1		50.5	98.9		14.1	6.5				inactive	inactive		
COc1cccc2c1C(=O)c1c(O)c3c(c(O)c1C2=O)C[C@@](O)(C(=O)CO)C[C@@H]3O[C@H]1C[C@H](N)[C@H](O)[C@H](C)O1 [DOXORUBICIN]	99.6	72.4		90.6	86.9	98.9	98.6	60.5	86.7	52.3							
O=C(c1cccc(Br)c1)C(Cl)Cl	79.6	44.9		86.2	43.6	72	97.4	18.1	24.7	15.6							
O=C(c1ccc(Cl)c(C(F)(F)F)c1)C(Cl)Cl	100	70.1		97.6	95.3	94.5	98.4	55.7	79.5	27.6							
O=C(c1cccc([N+](=O)[O-])c1)C(Cl)Cl	99.9	62.2		98.5	82.1	85.9	99.9	25.5	44.2	13.4							
Cc1cccc(C(=O)C(Cl)Cl)c1	96.8	42.5		97.3	79.9	91.3	96.7	33.3	65.6	14.2							
O=C(c1ccc(C(F)(F)F)cc1)C(Cl)Cl	75.5	47.8		91.6	49.7	85.9	98.2	25.8	37.1	18.6							
O=C(c1ccc(Cl)cc1Cl)C(Cl)Cl	99.8	80.2		96.9	89	48.4	99	35.2	4.4	1.8							
O=C(c1ccc(F)c([N+](=O)[O-])c1)C(Cl)Cl	14.5	6.5		73.3		51.1	97.6		20.4	7				inactive	inactive		
O=C(c1ccc([N+](=O)[O-])cc1)C(Cl)Cl	99.9	77.8		99.6	98.5	97.6	99.4	35	70.5	24.5							
